Calls of active or inactive are those of the source. How the calls were made is not given here.
Assay: Quorum luxo inducers, light production, v cholerae bh1651 luxod47e, confirmatory dose response (AID 624254)
Details: V. cholerae BH1651 luxOD47E, luciferase light induction, 6 h; at 50 µM (top of the series)

SMILES	activation (light increase)
C[C@@H]1CN([C@H](C)CO)C(=O)c2cccc(NC(=O)Nc3ccc4c(c3)OCO4)c2O[C@@H]1CN(C)S(=O)(=O)c1ccccc1	inactive
CC(C#N)On1c(SC(C)C#N)nc2ccccc2c1=O (stereo unspecified)	inactive
COc1cccc(NC(=O)C2CC(=O)OC23CCOC(C)(C)C3)c1 (stereo unspecified)	inactive
Cc1ccc(C(=O)OCC(=O)NC2CCCC2)cc1C	inactive
Nc1nnc(SCC(=O)Nc2ccc3c(c2)OCCO3)s1	inactive
O=C(CN1C(=O)COc2ccccc21)c1ccc(Cl)cc1	inactive
CCc1cccc(C)c1N(C(=O)Cn1c(CO)nc2ccccc21)C(C)COC (stereo unspecified)	inactive
CCCCNC(=O)Nc1cc(C)on1	inactive
COC(=O)c1ccc(-c2nc3cc(Cl)c(N)cc3s2)cc1	inactive
CCN(CC)c1ccc(CNc2nnnn2C)cc1	inactive
COc1cc2c(c(OC)c1OC)C(c1ccc(C)cc1)CC(=O)O2 (stereo unspecified)	inactive
COc1cccc(Nc2nc(NCCO)c3ccccc3n2)c1	inactive
Cn1nc(-c2ccc(OCC(=O)NCC3CCCO3)cc2)c2ccccc2c1=O (stereo unspecified)	inactive
COc1cc(SC)ccc1C(=O)OCC(=O)NCC(C)C	inactive
CCSc1nnc(NC(=O)c2ccc3ccccc3n2)s1	inactive
Cn1cnnc1SCCOc1ccc(Cl)cc1	inactive
COc1ccccc1NS(=O)(=O)c1cccc(C(=O)NCC(c2ccco2)N2CCCCC2)c1 (stereo unspecified)	inactive
CC(=O)c1ccc(NC(=O)COc2ccccc2C(=O)Nc2ccccc2)cc1	inactive
CCCc1ccc2oc(C(=O)N(Cc3ccncc3)CC3CCCO3)c(C)c2c1 (stereo unspecified)	inactive
CCC(=O)NCCc1nc(-c2ccccc2)no1	inactive
O=C(Cc1ccc2c(c1)CCCC2)Nc1ccccc1Cl	inactive
O=c1c2c3c(sc2ncn1Cc1ccc(F)cc1)CCC3	inactive
O=S(=O)(Nc1ccccn1)c1ccccc1	inactive
CCOC(=O)C1CCN(C(=O)Nc2ccc3c(c2)nc(C)n3C)CC1	inactive

SMILES	activation (light increase)
CS(=O)(=O)NNC(=O)c1sccc1OCc1ncc(C(F)(F)F)cc1Cl	inactive
Clc1ccc(-c2cc(COc3ccc4ccccc4c3)no2)cc1	inactive
Cc1noc(C)c1NC(=O)Nc1cccc2c1O[C@H](CN(C)S(=O)(=O)c1cccs1)[C@@H](C)CN([C@H](C)CO)C2=O	inactive
O=C(Nc1nnc(-c2ccc(Br)cc2)o1)c1cccc(N2C(=O)CCC2=O)c1	inactive
COC(=O)c1cc(C(=O)OCC(=O)c2ccc3c(c2)NC(=O)CO3)cc([N+](=O)[O-])c1	inactive
O=C(Nc1cccc(-c2ccc(N3CCOCC3)nn2)c1)c1ccccc1Cl	inactive
COc1ccc(S(=O)(=O)N2CCCCC2)cc1NC(=O)c1ccc(OC)c(OC)c1	inactive
O=C(CNC(=O)c1ccncc1)Nc1ccc(F)c(F)c1	inactive
COc1cccc(CNC(=O)C2CSC3(C)CCC(=O)N23)c1 (stereo unspecified)	inactive
OCCn1c(SC2CCCCC2)nc2ccccc21	inactive
Cc1ccc(C)c(N2CCN(C(c3ccc(N(C)C)cc3)c3nnnn3C(C)(C)C)CC2)c1 (stereo unspecified)	inactive
CCCn1nnnc1SCC(=O)c1ccc2c(c1)OCCO2	inactive
COc1ccccc1NC(=O)COC(=O)c1oc2ccccc2c1C	inactive
Cc1ccc(OCCNC(=O)c2cccc(C)c2)cc1	inactive
Cc1cccc(N(CC(N)=O)C2SC(=O)N(c3ccccc3)C2=O)c1 (stereo unspecified)	inactive
C[C@@H]1CN([C@H](C)CO)C(=O)c2cccc(NC(=O)C3CC3)c2O[C@H]1CN(C)S(=O)(=O)c1cccs1	inactive
Cc1ccc(C)n1-c1sc2c(c1C#N)CCC(C)C2 (stereo unspecified)	inactive
C=Cn1c(C(=O)O)ccc1-c1ccc(CC)cc1	inactive
CCOC(=O)c1ccccc1NC(=O)COC(=O)C1=COCCO1	inactive
Clc1ncnc2scc(-c3ccccc3)c12	inactive
Cc1ccc(OCCNC(=O)c2ccco2)cc1C	inactive
O=C(Nc1cccc(-c2ccc(N3CCOCC3)nn2)c1)c1ccc([N+](=O)[O-])cc1	inactive
CCOC(=O)c1c(-c2ccccc2)csc1NC(=O)c1nn(CC)cc1Br	inactive
COc1ccc(N(CC(=O)NC2CCCCC2)C(=O)CNC(=O)c2ccco2)c(OC)c1	inactive

SMILES	activation (light increase)
CCOc1ccc2cc(C#N)c(SCC(=O)N3CCC(C)CC3)nc2c1	inactive
CCCCOc1ccc(NS(=O)(=O)c2cn(C)cn2)cc1	inactive
CCCNC(=O)COC(=O)/C=C/c1ccc(C)o1	inactive
CCCc1cc(=O)[nH]c(Nc2ccc(N3CCCCC3)cc2)n1	inactive
Cc1cccc(N2CCN(C(=O)Cn3cccc3C(=O)c3ccccc3)CC2)c1C	inactive
COc1ccc(CCNC(=O)C(=O)NCC2CCCN2S(=O)(=O)c2ccc(OC)cc2)cc1 (stereo unspecified)	inactive
Cc1ccc(S(=O)(=O)NCCC(=O)O)cc1	inactive
CCS(=O)(=O)N1CCN(C(=O)CCC2CCCC2)CC1	inactive
CCOC(=O)c1c(C)[nH]c(C(=O)COC(=O)C2(C)CC2(Cl)Cl)c1C (stereo unspecified)	inactive
Cn1c(CNc2cccc(Cl)c2)nnc1SCC(=O)OC1CCCCC1	inactive
C[C@@H]1CN([C@@H](C)CO)C(=O)c2cccc(NC(=O)C3CC3)c2O[C@@H]1CN(C)S(=O)(=O)c1cccs1	inactive
Cc1ccccc1OC(C)c1nc(-c2ccccc2)no1 (stereo unspecified)	inactive
COc1cc(NC(=O)Cc2cccs2)ccc1-n1cnnn1	inactive
Cc1nnc2c3ccccc3c(-c3ccc(O)cc3)nn12	inactive
O=c1ncn(-c2cccc(Cl)c2)c2ccccc12	inactive
CNC(=O)c1cc2cc(OC)ccc2n1CCN(Cc1ccccc1)Cc1ccccc1	inactive
O=C(Nc1c(F)c(F)c(F)c(F)c1F)C1CCCCC1	inactive
COc1ccc(NC(=O)CN(C)C(=O)c2cccc(S(=O)(=O)N3CCN(C)CC3)c2)cc1	inactive
CCOc1ccc(CNc2nnnn2C)cc1	inactive
Cc1ccc(C)c(C(=O)CN2C(=O)NC3(CCCCCC3)C2=O)c1	inactive
O=c1c2cc(Br)ccc2nc(-c2cccc(C(F)(F)F)c2)n1O	inactive
COc1ccccc1CCNC(=O)C(=O)NCCC1CCCCN1S(=O)(=O)c1cccs1 (stereo unspecified)	inactive
COc1ccc(Cl)cc1NC(=O)COC(=O)c1cc(C)oc1C	inactive

— PubChem BioAssay AID624254 (Broad Institute, 2012)
